This note sets out measurements from BindingDB's records for doi:10.1021/jm00403a015 (Washington State University, 1988).

Usually Ki stands for a measure of affinity in units of concentration, obtained from inhibition or displacement. Higher therefore signals a looser hold on the target.

For the test, the target named is Cytidine deaminase (Mus musculus) (UniProt P56389). Nature of the test: Inhibition of cytidine deaminase enzyme obtained from mouse kidney.
Sequence of Cytidine deaminase (Mus musculus) (P56389 whole entry, looked up): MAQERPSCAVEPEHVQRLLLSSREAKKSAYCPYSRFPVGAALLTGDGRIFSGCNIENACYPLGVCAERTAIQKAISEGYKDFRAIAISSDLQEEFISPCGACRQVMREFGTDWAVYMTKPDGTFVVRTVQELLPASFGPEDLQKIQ

Take `[O-][S+]1C=CN(C2O[C@H](CO)[C@@H](O)[C@H]2O)C(O)=C1` (stereo partly specified): the Ki turned out to be 330 µM.
